Series [1] has as its target Luciferin 4-monooxygenase (Photinus pyralis, UniProt P08659). The series can be described thus: inhibition of purified Photinus pyralis luciferase – biochemical, luminescence, dose response (AID 1891).
A short description of series [2]: Luminescence Cell-Based Dose Confirmation HTS to Identify Inhibitors of Platelet Dense Granule Release. [Related pubchem assays: 1663 (Primary HTS), 1678 (Summary of Project)]. It counts as functional.
The next series concerns H4. Nature of the series: Luminescence Cell-Based Dose Response HTS to Identify Activators of 5'UTR Stem-Loop Driven Prion Protein mRNA Translation in H4 Neuroglioblastoma Cells. [Related pubchem assays: 1829 (Project Summary), 1814 (Primary HTS)]. It counts as functional. As to conditions: Homo sapiens.
Series [3] in a line: Luminescence Cell-Based Dose Response HTS to Identify Activators of Luciferase Translation or Activity in H4 […] Cells. [Related pubchem assays: 1829 (Project Summary), 1814 (Primary HTS)]. Format: functional.
A short description of series [4]: Luminescence Cell-Based Dose Confirmation HTS to Identify Activators of 5'UTR Stem-Loop Driven Alpha-Synuclein mRNA Translation in H4 Neuroglioblastoma Cells. [Related pubchem assays: 1829 (Project Summary), 1814 (Primary HTS)]. It counts as functional.
Series [5] concerns the target T1, Fatty acid synthase (Homo sapiens, UniProt P49327). Nature of the series: inhibition of human FAS-TE enzyme activity – biochemical, endpoint fluorescence intensity, uHTS hits, dose response (AID 624327).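 Note: fluorescence from hydrolysis of an O-methyl fluorescein acyl ester substrate by the enzyme.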 It counts as functional.
In series [6] the target is T1, Fatty acid synthase. Nature of the series: inhibition of human FAS-TE enzyme activity – biochemical, kinetic fluorescence intensity, dose response (AID 624326).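 Note: rate of fluorescence rise from hydrolysis of a fluorogenic O-methyl fluorescein ester substrate.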 Format: functional.
Series [7] concerns the target T2, Corticotropin-releasing factor receptor 2/Corticotropin-releasing factor-binding protein (Homo sapiens, UniProt P24387+Q13324).
T2 sequence (Q13324 whole entry): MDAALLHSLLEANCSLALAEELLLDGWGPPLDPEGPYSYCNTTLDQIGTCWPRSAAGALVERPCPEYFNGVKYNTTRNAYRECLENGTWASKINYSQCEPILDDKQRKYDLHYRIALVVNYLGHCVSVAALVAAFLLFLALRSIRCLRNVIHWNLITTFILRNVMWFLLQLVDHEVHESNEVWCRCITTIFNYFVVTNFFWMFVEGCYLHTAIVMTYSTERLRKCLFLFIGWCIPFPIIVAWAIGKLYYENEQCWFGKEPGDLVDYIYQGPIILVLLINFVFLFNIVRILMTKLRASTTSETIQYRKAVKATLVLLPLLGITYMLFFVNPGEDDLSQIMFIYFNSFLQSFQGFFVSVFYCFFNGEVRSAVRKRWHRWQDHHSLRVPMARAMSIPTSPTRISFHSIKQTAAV
T2 sequence (P24387 whole entry): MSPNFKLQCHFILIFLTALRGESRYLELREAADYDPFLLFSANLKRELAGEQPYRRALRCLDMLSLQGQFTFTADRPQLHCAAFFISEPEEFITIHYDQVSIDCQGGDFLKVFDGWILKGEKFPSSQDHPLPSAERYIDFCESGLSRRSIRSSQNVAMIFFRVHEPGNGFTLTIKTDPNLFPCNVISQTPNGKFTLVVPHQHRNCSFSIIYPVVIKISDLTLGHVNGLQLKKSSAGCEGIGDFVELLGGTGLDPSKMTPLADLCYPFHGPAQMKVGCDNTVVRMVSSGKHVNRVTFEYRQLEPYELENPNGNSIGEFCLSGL
The series can be described thus: activators of CRF receptor 2 with binding protein – uHTS hits, confirmation (AID 602473). Format: functional. As to conditions: read-out: EC50_Mean.

Series [8] deals with T2, Corticotropin-releasing factor receptor 2/Corticotropin-releasing factor-binding protein. The series can be described thus: Dose Response confirmation of uHTS hits for small molecule antagonists of the CRF-binding protein and CRF-R2 receptor complex. Format: functional. The settings on record: read-out: IC50_Mean.
The target in series [9] is T3, Heat shock factor protein 1 (Mus musculus, UniProt P38532).
T3 sequence (P38532 whole entry): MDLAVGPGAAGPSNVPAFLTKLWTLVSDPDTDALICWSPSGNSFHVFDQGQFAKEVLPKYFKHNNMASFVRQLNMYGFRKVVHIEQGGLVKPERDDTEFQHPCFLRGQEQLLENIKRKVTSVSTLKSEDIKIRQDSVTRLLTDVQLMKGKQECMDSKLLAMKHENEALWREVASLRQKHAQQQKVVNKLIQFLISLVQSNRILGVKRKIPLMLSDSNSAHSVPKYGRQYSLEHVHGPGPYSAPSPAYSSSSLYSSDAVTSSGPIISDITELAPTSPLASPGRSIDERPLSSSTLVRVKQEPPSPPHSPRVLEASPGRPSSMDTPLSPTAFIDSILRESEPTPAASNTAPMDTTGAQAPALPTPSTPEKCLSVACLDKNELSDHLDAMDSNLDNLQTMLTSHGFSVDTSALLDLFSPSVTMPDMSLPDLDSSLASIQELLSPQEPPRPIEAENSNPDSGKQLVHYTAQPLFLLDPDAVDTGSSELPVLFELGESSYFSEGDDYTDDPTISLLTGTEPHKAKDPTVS
Nature of the series: decrease of HSF1-responsive luciferase luminescence – cell-based, NIH3T3, dose retest, confirmation (AID 2382).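 Note: NIH3T3 fibroblasts with HSF1-driven luciferase reporter stressed by proteasome inhibitor MG132; luminescence from HSF1-driven luciferase expression after 8 hours of MG132 stress.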 Format: functional.

A short description of series [10]: Luminescence Cell-Based Dose Retest to Confirm Inhibitors of Cancer Stem Cells. [Related pubchem assays (depositor defined):AID2717, AID2721]. Format: functional. As to conditions: Homo sapiens.
A further series has as its target T4, Cytochrome P450 1A2 (Homo sapiens, UniProt P05177).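 Note: PubChem cytochrome P450 panel assay, CYP1A2 panel member.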
T4 sequence (P05177 whole entry): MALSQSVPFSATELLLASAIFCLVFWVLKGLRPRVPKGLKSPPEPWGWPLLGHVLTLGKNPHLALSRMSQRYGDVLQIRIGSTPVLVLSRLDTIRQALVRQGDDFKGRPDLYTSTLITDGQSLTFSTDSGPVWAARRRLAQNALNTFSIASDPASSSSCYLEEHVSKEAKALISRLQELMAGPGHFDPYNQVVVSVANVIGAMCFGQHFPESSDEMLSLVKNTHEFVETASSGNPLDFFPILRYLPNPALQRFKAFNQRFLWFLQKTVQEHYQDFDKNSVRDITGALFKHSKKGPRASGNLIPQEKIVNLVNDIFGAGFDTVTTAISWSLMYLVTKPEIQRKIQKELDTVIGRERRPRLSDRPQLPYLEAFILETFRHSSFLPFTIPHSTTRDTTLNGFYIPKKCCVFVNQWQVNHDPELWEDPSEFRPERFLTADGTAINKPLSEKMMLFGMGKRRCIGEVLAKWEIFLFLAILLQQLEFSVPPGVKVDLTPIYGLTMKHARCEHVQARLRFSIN

Series [11] is described as follows: viability of uninfected HEp-2 cells – cell-based, HTS, cytotoxicity control for RSV inhibitor project, dose response (AID 2410). Format: functional. The settings on record: human respiratory syncytial virus.
Another series deals with Cytochrome P450 2C19 (Homo sapiens, UniProt P33261). The series can be described thus: Cytochrome panel assay with activity outcomes. Panel member name: p450-cyp2c19 Compounds with AC50 equal or less than 10 uM are considered active. It counts as functional.

Calls of active or inactive are those of the source.

Luciferin 4-monooxygenase, sequence (P08659 whole entry): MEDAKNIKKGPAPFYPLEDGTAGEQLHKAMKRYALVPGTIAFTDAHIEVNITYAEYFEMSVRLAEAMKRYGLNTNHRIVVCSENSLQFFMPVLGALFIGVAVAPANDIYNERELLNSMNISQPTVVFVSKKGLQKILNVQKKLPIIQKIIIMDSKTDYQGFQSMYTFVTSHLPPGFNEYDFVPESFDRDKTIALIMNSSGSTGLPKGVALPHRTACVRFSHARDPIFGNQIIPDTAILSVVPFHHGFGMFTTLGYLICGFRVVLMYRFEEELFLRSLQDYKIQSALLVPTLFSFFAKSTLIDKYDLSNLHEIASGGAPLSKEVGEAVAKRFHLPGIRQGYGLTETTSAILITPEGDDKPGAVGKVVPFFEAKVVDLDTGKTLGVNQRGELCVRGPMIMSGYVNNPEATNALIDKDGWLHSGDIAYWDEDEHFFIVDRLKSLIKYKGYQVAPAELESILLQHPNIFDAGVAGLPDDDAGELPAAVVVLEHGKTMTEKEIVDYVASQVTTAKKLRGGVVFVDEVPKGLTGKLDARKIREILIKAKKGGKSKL
T1 sequence (P49327 whole entry): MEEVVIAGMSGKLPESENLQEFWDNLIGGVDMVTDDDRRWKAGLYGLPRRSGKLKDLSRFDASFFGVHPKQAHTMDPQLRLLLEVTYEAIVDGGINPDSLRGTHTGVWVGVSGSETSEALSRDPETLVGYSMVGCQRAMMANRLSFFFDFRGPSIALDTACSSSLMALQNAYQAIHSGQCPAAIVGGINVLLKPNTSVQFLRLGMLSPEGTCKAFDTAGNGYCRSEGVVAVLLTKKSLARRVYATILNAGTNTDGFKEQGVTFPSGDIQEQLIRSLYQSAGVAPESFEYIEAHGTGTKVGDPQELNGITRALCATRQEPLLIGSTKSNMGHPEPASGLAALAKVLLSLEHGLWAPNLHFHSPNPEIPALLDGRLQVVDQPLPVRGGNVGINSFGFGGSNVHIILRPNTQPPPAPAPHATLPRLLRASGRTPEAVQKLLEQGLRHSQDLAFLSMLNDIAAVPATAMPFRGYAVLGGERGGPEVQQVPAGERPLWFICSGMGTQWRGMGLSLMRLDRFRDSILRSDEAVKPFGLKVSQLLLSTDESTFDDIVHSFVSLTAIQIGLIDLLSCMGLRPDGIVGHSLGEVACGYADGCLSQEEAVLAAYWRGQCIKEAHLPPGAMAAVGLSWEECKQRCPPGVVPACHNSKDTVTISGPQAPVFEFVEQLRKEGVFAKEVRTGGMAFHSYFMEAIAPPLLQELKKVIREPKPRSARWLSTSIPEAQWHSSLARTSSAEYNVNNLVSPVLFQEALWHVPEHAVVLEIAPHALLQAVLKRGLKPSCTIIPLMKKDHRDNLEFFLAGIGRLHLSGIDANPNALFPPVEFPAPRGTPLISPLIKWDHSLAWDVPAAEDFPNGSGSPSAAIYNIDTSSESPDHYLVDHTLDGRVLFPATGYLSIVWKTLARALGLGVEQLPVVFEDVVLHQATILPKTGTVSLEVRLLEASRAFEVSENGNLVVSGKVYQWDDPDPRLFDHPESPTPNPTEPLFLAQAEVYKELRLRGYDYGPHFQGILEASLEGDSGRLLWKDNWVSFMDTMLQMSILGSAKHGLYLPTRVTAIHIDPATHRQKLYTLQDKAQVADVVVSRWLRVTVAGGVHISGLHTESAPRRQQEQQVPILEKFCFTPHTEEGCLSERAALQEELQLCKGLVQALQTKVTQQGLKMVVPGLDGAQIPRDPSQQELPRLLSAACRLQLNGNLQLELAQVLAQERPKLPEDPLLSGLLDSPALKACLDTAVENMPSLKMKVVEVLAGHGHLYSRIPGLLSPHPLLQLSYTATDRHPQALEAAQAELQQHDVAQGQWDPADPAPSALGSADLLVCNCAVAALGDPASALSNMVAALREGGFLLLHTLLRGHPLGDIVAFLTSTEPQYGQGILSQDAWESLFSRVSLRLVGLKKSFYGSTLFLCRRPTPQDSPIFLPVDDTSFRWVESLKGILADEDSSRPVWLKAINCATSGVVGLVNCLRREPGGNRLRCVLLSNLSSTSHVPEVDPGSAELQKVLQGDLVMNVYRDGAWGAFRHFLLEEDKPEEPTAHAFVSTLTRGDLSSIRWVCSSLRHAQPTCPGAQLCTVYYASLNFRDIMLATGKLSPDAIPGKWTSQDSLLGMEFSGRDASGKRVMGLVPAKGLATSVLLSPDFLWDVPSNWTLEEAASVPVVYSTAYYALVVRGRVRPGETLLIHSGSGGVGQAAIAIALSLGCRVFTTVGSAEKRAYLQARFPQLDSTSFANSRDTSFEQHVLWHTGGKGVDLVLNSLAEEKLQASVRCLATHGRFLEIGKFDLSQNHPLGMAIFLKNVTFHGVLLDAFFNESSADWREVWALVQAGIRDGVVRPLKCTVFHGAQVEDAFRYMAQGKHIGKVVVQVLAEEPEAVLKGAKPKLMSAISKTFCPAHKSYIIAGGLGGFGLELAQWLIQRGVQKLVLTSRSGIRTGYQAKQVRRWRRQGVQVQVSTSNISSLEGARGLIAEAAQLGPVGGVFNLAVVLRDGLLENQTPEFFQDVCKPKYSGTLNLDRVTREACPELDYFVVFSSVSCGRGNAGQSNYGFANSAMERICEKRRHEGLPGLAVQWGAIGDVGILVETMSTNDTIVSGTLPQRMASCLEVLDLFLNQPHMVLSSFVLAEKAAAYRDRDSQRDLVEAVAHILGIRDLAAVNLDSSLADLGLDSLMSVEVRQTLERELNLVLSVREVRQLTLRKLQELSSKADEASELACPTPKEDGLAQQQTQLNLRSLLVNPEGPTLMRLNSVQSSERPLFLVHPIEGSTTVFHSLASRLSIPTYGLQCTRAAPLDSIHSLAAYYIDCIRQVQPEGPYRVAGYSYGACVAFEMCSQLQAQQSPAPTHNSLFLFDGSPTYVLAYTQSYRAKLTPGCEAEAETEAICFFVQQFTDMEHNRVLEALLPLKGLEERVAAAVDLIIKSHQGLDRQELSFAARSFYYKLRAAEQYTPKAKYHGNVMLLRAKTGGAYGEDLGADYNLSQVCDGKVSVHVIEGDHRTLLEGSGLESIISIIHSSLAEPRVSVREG
Cytochrome P450 2C19, sequence (P33261 whole entry): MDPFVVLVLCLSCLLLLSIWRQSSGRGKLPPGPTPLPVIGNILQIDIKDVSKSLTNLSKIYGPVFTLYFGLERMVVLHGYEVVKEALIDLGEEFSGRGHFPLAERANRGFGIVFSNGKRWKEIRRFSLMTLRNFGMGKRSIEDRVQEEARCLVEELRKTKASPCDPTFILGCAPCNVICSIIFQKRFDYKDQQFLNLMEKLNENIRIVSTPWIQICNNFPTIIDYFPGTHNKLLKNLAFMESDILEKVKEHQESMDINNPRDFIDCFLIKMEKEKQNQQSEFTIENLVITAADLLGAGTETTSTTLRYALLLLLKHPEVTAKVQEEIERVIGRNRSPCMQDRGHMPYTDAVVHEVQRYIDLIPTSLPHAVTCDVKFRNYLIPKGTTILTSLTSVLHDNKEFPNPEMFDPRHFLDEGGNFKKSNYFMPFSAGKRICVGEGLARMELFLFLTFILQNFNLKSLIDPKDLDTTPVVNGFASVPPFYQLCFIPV

With `CC(=O)c1c(C)nc2nonc2c1N`, the EC50 is > 112 µM (not active) in series [1] and 26.6 µM (active) in [2].
In the case of `[O-][n+]1cc(-c2cc3ccccc3o2)[n+]([O-])c2c1CCCC2`, the figures for the EC50 (in the series with H4; in series [3]; in [4]) were 2.05 µM (active), 8.68 µM (active) and > 60 µM (not active), respectively.
Taken in the same sequence, the figures for `CCOc1ccc2[nH]c(SCC3CC3(Cl)Cl)nc2c1` (centres undefined) were 30.2 µM (active), 29.7 µM (active) and 0.506 µM (active).
Consider `CCn1cc(C(=O)NCc2ccco2)c(=O)c2cc(S(=O)(=O)N3CCC(C)CC3)ccc21`, for which the IC50 is 2.6 µM (active) on Fatty acid synthase [5] and 3.21 µM (active) at Fatty acid synthase [6].
As for `Cc1cc(C)c2cc(CN(Cc3ccco3)C(=O)NCc3ccccc3)c(O)nc2c1`, the EC50 in [1] and in [2] was > 112 µM (not active) throughout.
For the compound `CCCc1cc(O)nc(SCC(=O)N(CCC#N)c2ccc3c(c2)OCCO3)n1`, the EC50 in [7] was > 53 µM (inactive). Also, the IC50 in [8] is > 47.1 µM (inactive).
Taken in the same sequence, the figures for `CCOc1ccc(CNC(=O)CCC(=O)N2Cc3cccc(OC)c3Oc3ncccc32)cc1` were > 53 µM (inactive) and > 47.1 µM (inactive).
As to `O=C(COC(=O)c1cc(F)c(F)cc1Cl)NC1CCCCCC1`, the IC50 at Fatty acid synthase [5] was 13.1 µM (active); on Fatty acid synthase [6], 6.86 µM (active).
For the compound `CCc1ccc(NC(=O)CSc2nc(N)c(NC(=O)c3ccc(F)c(F)c3)c(O)n2)cc1`, the EC50 in series [7] was > 53 µM (inactive). The IC50 in series [8] was > 47.1 µM (inactive).
On to `CC(C)(C)c1ccc(COC(=O)CN2C(=O)NC3(CCCC3)C2=O)cc1`, for which the IC50 was 4.84 µM (active) on Fatty acid synthase [5] and 5.17 µM (active) at Fatty acid synthase [6].
Regarding `Cc1ccc(C(=O)Nc2ccnc(-c3cccnc3)n2)cc1`, the EC50 in the series on H4 was 15.4 µM (active); in series [3], 16.1 µM (active); in series [4] it was 13.3 µM (active).
As for `O=C(COC(=O)c1ccccc1-n1cnnn1)c1ccc(F)cc1`, the EC50 in the series on H4 was 31.3 µM (active); in series [9], 50.2 µM (active); in series [3], 7.61 µM (active); in series [4], 4.44 µM (active).
As to `Cn1sc(NC(=O)c2cccc(Cl)c2)nc1=O`, the EC50 was > 120 µM (not active) with H4, 7.11 µM (active) in series [3] and 12.8 µM (active) in series [4].
On to `COc1ccc(/C=C/C(=O)NC(=S)Nc2ccc(S(=O)(=O)Nc3cc(OC)ncn3)cc2)cc1`, for which the EC50 in series [7] is > 53 µM (inactive). The IC50 in series [8] was > 47.1 µM (inactive).
Regarding `CCCCN(C=O)c1c(CC)nc2c(OCc3ccc(Cl)cc3Cl)cccn12`, the IC50 at Fatty acid synthase [5] is 6.01 µM (active); on Fatty acid synthase [6], 8.19 µM (active).
Taken in the same sequence, the figures for `CCNc1ccc(S(=O)(=O)N(C)C)cc1NCC(=O)Nc1ccc(F)c(Cl)c1` were 12.4 µM (active) and 18.2 µM (active).
Consider `CCOC(=O)C1CCN(C(=O)CCc2nnc3ccc(NCc4ccco4)nn23)CC1`, for which the EC50 in [1] and in series [2] was > 112 µM (not active) in each case.
Consider `COc1ccc(NC(=O)c2nc3nc(C)cc(C(F)F)n3n2)cc1OC`, for which the figures for the EC50 in [1] and in series [2] were 18.9 µM (active) and > 112 µM (not active), respectively.
The matching figures for `COc1ccc(OC)c(NC(=O)CS(=O)(=O)Cc2nc(-c3ccccc3C)oc2C)c1`: > 112 µM (not active) and > 112 µM (not active).
Regarding `O=C(CSc1cn(Cc2ccccc2)c2ccccc12)N1CCOCC1`, the EC50 with H4 was 16.8 µM (active); in series [3], 19.8 µM (active); in series [4] it was 20.9 µM (active).
By AC50 is commonly meant the midpoint of the concentration-response curve, whichever way the signal moves. For `CCOC(=O)c1c(NC(=O)/C=C/c2ccc3c(c2)OCO3)sc(C)c1CC`, the AC50 in series [10] was 1.04 µM (active); at Cytochrome P450 1A2, 12.6 µM (inconclusive). In addition, the EC50 in series [1] and in [2] was > 112 µM (not active) each time.
For the compound `Cc1ccc(CN(C(=O)c2csnn2)C(C(=O)NC2CCCC2)c2ccco2)cc1` (centres undefined), the EC50 in series [1] and in series [2] was > 112 µM (not active) in each case.
Turning to `Cc1cc(/C(O)=C(/C([S-])=Nc2ccc(F)cc2)[n+]2ccccc2)c(C)n1-c1ccc(F)cc1`, the EC50 is 21.1 µM (active) with H4, 16.1 µM (active) in series [3] and > 120 µM (not active) in series [4].
As usually defined, the CC50 is the concentration giving 50% cytotoxicity. Consider `COc1ccc(-c2c(C#Cc3ccccc3)c3ccccc3n2C)cc1`, for which the EC50 in the series on H4 is 43.1 µM (active); in series [3], 22.1 µM (active); in series [4], 19.6 µM (active). Besides, the CC50 in [11] is 44 µM (active).
For the compound `Cc1nc(S(=O)(=O)N2CCOCC2)c(C#N)c(C)c1Cl`, the EC50 with H4 was > 120 µM (not active); in [3] it was 55.7 µM (active); in [4] it was 10.7 µM (active). In addition, the AC50 result on Cytochrome P450 2C19 is “inconclusive”; at Cytochrome P450 1A2 it was 1 µM (inconclusive).
Regarding `O=C(CN1C(=O)NC2(CCCCCC2)C1=O)c1ccccc1`, the EC50 in [1] and in [2] was > 112 µM (not active) throughout.
On to `C[C@]12CCC(=O)C=C1CC[C@@H]1[C@@H]2[C@@H](O)C[C@]2(C=O)[C@@H](C(=O)CO)CC[C@@H]12` [ALDOSTERONE], for which the EC50 (with H4; in series [3]; in series [4]) was > 120 µM (not active) each time.
Take `Cn1c(=O)c2cc3ccc(Cl)cc3nc2n(C)c1=O`: the EC50 in series [7] was > 53 µM (inactive). Besides, the IC50 in series [8] is > 47.1 µM (inactive).
Turning to `CCCCOc1ccc2c(c1)/C(=C(\C(Cl)=C(Cl)Cl)[N+](=O)[O-])N2`, the EC50 in series [7] is 37.9 µM (active). For the same compound, the IC50 in [8] was > 47.1 µM (inactive).

The record behind these values is ChEMBL document CHEMBL1201862, “PubChem BioAssay data set” (2004).
